Test results from patent US10017515B2, “Stable amorphous ticagrelor and a process for its preparation” (Sun Pharmaceutical Industries Limited, priority 2014, dated 2018).

Columns and labels:
[1] = Stability on storage, HPLC purity; assay type: physicochemical; settings: material of Example 6
Method: HPLC purity (initial and at stability at a temperature of 25° C.±2° C. at relative humidity of 60% ±5% for 1, 2, 3, and 6 months): 99.8%
HPLC purity (initial and at stability at a temperature of 5° C.±3° C. for 3 and 6 months): 99.9%

[2] = Stability on storage, X-ray powder diffraction (XRPD) pattern; assay type: physicochemical
Method: The X-ray powder diffraction (XRPD) pattern was recorded using a PANalytical® X'pert PRO with X'celerator® as the detector.

[3] = 25° C.±2° C., relative humidity 60% ±5%, for 1, 2, 3, and 6 months

HPLC purity (initial and at stability) ([1]; 5° C.±3° C. for 3 and 6 months): 99.9%
HPLC purity (initial and at stability) [1, 3]: 99.8%
Change in XRPD pattern on storage ([2]; 5° C.±3° C. for 3 and 6 months, listed as stable amorphous ticagrelor): no change in XRPD pattern
Change in XRPD pattern on storage ([2]; 25° C.±2° C., relative humidity 60% ±5%, for 1, 2, 3, and 6 months, listed as stable amorphous ticagrelor): no change in XRPD pattern
SMILES: CCCSc1nc(N[C@@H]2C[C@H]2c2ccc(F)c(F)c2)c2nnn([C@@H]3C[C@H](OCCO)[C@@H](O)[C@H]3O)c2n1 [amorphous ticagrelor, (1S,2S,3R,5S)-3-[7-{[(1R,2S)-2-(3,4-difluorophenyl)cyclopropyl]amino}-5-(propylthio)-3H-[1,2,3]-triazolo[4,5-d]pyrimidin-3-yl]-5-(2-hydroxyethoxy)cyclopentane-1,2-diol]
Change in XRPD pattern on storage ([2]; 5° C.±3° C. for 3 and 6 months): no change was observed in the XRPD pattern
Change in XRPD pattern on storage [2, 3]: no change was observed in the XRPD pattern
